Patent publication US20240299309A1 (priority 2020, published 2024)

How the values were obtained:
[1] = test system: Pseudomonas aeruginosa; assay type: cell-based
[2] = test system: Staphylococcus aureus; assay type: cell-based
[3] = test system: SARS-CoV-2; set-up: species or system Balb/c mice; conditions: mouse, in vivo

Compound	antimicrobiotic activity [1]	antimicrobiotic activity [2]	VNTs after 48 h storage with preservative [3]
OCCOc1ccccc1 [Formulation 2-PE, 2-Phenoxyethanol]	has antimicrobiotic activity	has antimicrobiotic activity	more advantageous results
C[CH2][Hg][S]c1ccccc1C(=O)[O-].[Na+] [Thiomersal, Natrium-2-(ethylmercurithio)benzoat]			slight decrease
